From patent US12441709B2, “Therapeutic compounds” (INDIVIOR UK LIMITED, priority 2016, dated 2025)
Where two headings read alike, the source gives them in different places. No end group written: not given here.

Assays:
human OX1 receptor [1] = biological target: T1, human OX1 receptor (Homo sapiens, UniProt O43613); test: Orexin 1 receptor radioligand binding assay ([3H]-SB674042 competition); settings: CHO membranes, 1 nM [3H]-SB674042, 90 min room temperature; read-out: hOX1 pKi (converted)
T1 construct: expressed in transfected cells; host or cells: CHO cells
T1 sequence (O43613 1-425): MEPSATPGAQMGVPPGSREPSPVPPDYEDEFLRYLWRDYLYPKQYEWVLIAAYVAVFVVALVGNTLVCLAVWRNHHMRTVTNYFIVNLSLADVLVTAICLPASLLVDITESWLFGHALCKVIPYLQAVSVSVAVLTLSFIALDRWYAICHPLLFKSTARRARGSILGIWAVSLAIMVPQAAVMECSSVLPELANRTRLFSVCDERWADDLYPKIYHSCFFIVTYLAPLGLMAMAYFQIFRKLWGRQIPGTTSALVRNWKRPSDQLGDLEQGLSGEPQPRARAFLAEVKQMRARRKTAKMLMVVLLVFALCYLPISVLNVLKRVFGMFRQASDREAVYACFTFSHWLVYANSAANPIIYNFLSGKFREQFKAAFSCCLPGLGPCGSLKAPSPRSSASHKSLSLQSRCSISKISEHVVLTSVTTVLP
Description: Orexin 1 Receptor Radioligand Binding Assay:
Cell membranes were prepared from the human OX1 receptor expressing CHO cell line. The harvested cell pellets were homogenized in ice-cold buffer (15 mM TrisHCl (pH 7.5), 2 mM MgCl2, 0.3 mM EDTA, 1 mM EGTA, Sigma protease inhibitor cocktail) and centrifuged at 41,000 g for 20 min at 4° C. After discarding the supernatants the pellets were re-suspended in the before mentioned buffer followed by homogenization and another centrifugation. Obtained pellets were re-suspended in ice cold buffer containing 75 mM TrisHCl (pH 7.5), 12.5 mM MgCl2, 0.3 mM EDTA, 1 mM EGTA, 250 mM sucrose and a protease inhibitor cocktail (Sigma). After protein quantification with the Pierce Protein Assay Kit, using BSA as standard, the membrane homogenates were aliquoted and frozen down at […] until further use.
(§1) Expression levels of the Ox1 receptor (Bmax) were determined by saturation binding and the Kd of the radioligand [^3H]SB674042 was determined by association and dissociation kinetics. Data were elaborated with Graph Pad Prism using radioligand binding analysis. Steady state binding was reached after 90 min of incubation at room temperature. […]

human OX1 receptor [2] = biological target: T1, human OX1 receptor; test: Ox1 antagonist FLIPR assay (calcium, orexin A at EC75); format: cell-based; settings: CHO cells expressing human OX1; at least four replicates; read-out: hOX1 pIC50 (converted)
Excerpt: (§2) Antagonism against orexin receptors has been measured for each example compound using at least one of the following procedures. Antagonism is reported as a pIC50, where pIC50=−log10(IC50) and where IC50 is the concentration of example compound needed to inhibit 50% of the agonist response. These values may fluctuate depending on the daily cellular assay performance. Fluctuations of this kind are known to those skilled in the art. All reported values are the result of at least four replicate experiments. Ox2 values are only reported from dose response curves for which the top concentration is at least 10 μM.
(§3) Ox1 and Ox2 Antagonist FLIPR Assay: […]
(§4) The next day media is removed and replaced with 30 μL/well of cell loading buffer (a vial of Calcium 5 is solubilized in 20 mL of assay buffer) and the cells incubated for 1 hr at 37° C. The serially diluted test compounds (10 μL/well) are added to the cell plate by the FLIPR Tetra and the addition is monitored for 5 min by the instrument. […] Finally 10 μL of orexin Ain assay buffer+0.1% (w/v) bovine serum albumin is dispensed by the FLIPR Tetra at an EC75 concentration determined for each receptor on the day of the assay. Fluorescence is measured at excitation and emission wavelengths of 485 nm and 525 nm, respectively and data analyzed using Graph Pad Prism for the EC75 value of orexin A and Aplus to determine a pIC50 value for each test compound. […]

human Orexin 1 receptor = biological target: T2, human Orexin 1 receptor (Homo sapiens, UniProt O43613); test: Kinetics of competitive binding (Motulsky and Mahan analysis), Orexin 1 receptor; settings: for Ki: read-out: pKi (M&M) (converted)
T2 construct: expressed in transfected cells
T2 sequence (O43613 1-425): T1 sequence (O43613 1-425)
Description: (§5) Kinetics of Competitive Binding (Motulski and Mahan's Analysis):
(§6) Motulsky and Mahan characterisation of the Examples was performed as described by Faedo et al., European Journal of Pharmacology 692(2012), p. 1-9 with the following modifications:
(§7) The association binding experiment was initiated by addition of membranes expressing the human Orexin 1 receptor at different times to the incubation buffer containing 1 nM of [^3H] SB674042. Non-specific binding was determined in the presence of 10 μM of SB674042. The association of the radioligand to the orexin receptor was performed as described for the kinetics experiment in the presence of the competing test compounds. The competing test compounds were assayed at three concentrations corresponding to 3, 10 and 30 fold of the determined Ki. For kinetic binding studies of the human Orexin 2 receptor, the method described for the Orexin 1 receptor was used with modifications that membranes expressing the human Orexin 2 receptor were incubated in buffer containing 1 nM of [3H] EMPA and non-specific binding was determined in the presence of 10 μM ACT-078573.

human OX2 receptor [3] = biological target: T3, human OX2 receptor (Homo sapiens, UniProt O43614); test: Orexin 2 receptor radioligand binding assay ([3H]-EMPA competition); settings: CHO membranes, 2 nM [3H]-EMPA, 60 min room temperature; read-out: hOX2 pKi (converted)
T3 construct: expressed in transfected cells; host or cells: CHO cell line (membranes)
T3 sequence (O43614 1-444): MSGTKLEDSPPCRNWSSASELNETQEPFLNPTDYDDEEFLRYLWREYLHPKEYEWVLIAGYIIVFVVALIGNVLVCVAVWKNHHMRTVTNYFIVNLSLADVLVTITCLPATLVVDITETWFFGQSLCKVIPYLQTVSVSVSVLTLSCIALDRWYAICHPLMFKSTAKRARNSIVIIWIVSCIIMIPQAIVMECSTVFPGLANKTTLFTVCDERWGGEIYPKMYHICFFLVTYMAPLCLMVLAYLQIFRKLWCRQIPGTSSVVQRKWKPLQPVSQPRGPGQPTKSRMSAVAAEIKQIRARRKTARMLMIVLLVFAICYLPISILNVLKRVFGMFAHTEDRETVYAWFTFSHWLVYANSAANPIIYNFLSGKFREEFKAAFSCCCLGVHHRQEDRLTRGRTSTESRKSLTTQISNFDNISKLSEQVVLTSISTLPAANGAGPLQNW
Description: Orexin 2 Receptor Radioligand Binding Assay:
Cell membranes were prepared from the human Ox2 receptor expressing CHO cell line. The harvested cell pellets were homogenized in ice-cold buffer (15 mM TrisHCl (pH 7.4), 2 mM MgCl2, 0.3 mM EDTA, 1 mM EGTA, Sigma FAST™ protease inhibitor cocktail) and centrifuged at 45,000 rpm for 30 min at 4° C. After discarding the supernatants the pellets were re-suspended in the before mentioned buffer followed by homogenization and another centrifugation. Obtained pellets were re-suspended in ice cold buffer containing 75 mM TrisHCl (pH 7.5), 12.5 mM MgCl2, 0.3 mM EDTA, 1 mM EGTA, 250 mM sucrose and a Sigma FAST TM protease inhibitor cocktail. After protein quantification with the Pierce Protein Assay Kit, using BSA as standard, the membrane homogenates were aliquoted and frozen down at […] until further use.
as §1, with “Ox2” for “Ox1”, “[^3H]EMPA” for “[^3H]SB674042”, “60” for “90”

human OX2 receptor [4] = biological target: T3, human OX2 receptor; test: Ox2 antagonist FLIPR assay (calcium, orexin A at EC75); format: cell-based; settings: CHO cells expressing human OX2; top concentration at least 10 μM; at least four replicates; read-out: hOX2 pIC50 (converted)
Excerpt: as §2, §3, §4

human Orexin 2 receptor = biological target: T4, human Orexin 2 receptor (Homo sapiens, UniProt O43614); test: Kinetics of competitive binding (Motulsky and Mahan analysis), Orexin 2 receptor; settings: mean of 3 studies (n=3); for Ki: 1 nM [3H] EMPA, read-out: pKi (M&M) (converted)
T4 construct: expressed in transfected cells
T4 sequence (O43614 1-444): T3 sequence (O43614 1-444)
Description: as §5, §6, §7
The results for the Orexin-2 Receptor studies are the mean of the results from 3 studies (n=3) for both Example compounds.

orexin-1 (OX1) = biological target: T5, orexin-1 (OX1) (Homo sapiens, UniProt O43613); settings: affinity of OxA relative to OxB at OX1; literature reference (2); cited from earlier work
T5 sequence (O43613 1-425): T1 sequence (O43613 1-425)

[5] = further test results (Example 1 n = 3, Example 2 n = 1)
[6] = mean of all results (Example 1 n = 5, Example 2 n = 3)
[7] = mean of initial results (n = 2)

Cc1ccc(-n2nccn2)c(C(=O)N(C)[C@@H](C)CNc2cnc(C(F)(F)F)cn2)n1 [Example 1, N,6-dimethyl-3-(2H-1,2,3-triazol-2-yl)-N-[(2S)-1-{[5-(trifluoromethyl)pyrazin-2-yl]amino}propan-2-yl]pyridine-2-carboxamide]
Ki (human OX1 receptor [1]): 1 nM
IC50 (human OX1 receptor [2]): 0.794 nM
dissociation half-life (human Orexin 1 receptor; [5]): 104 min
koff (human Orexin 1 receptor; [5]): 0.000117 s⁻¹
kon (human Orexin 1 receptor; [5]): 146000 M⁻¹ s⁻¹
tR (human Orexin 1 receptor; [5]): 150 min
Ki (human Orexin 1 receptor; [5]): 0.794 nM
dissociation half-life (human Orexin 1 receptor; [6]): 170 min
koff (human Orexin 1 receptor; [6]): 8.33e-05 s⁻¹
kon (human Orexin 1 receptor; [6]): 140000 M⁻¹ s⁻¹
tR (human Orexin 1 receptor; [6]): 245 min
Ki (human Orexin 1 receptor; [6]): 0.501 nM
dissociation half-life (human Orexin 1 receptor; [7]): 248 min
koff (human Orexin 1 receptor; [7]): 5e-05 s⁻¹
kon (human Orexin 1 receptor; [7]): 130000 M⁻¹ s⁻¹
tR (human Orexin 1 receptor; [7]): 357 min
Ki (human Orexin 1 receptor; [7]): 0.316 nM
Ki (human OX2 receptor [3]): 251 nM
IC50 (human OX2 receptor [4]): 1000 nM
Ki (human Orexin 2 receptor): 316 nM
dissociation half-life (human Orexin 2 receptor): 4.1 min
koff (human Orexin 2 receptor): 0.00352 s⁻¹
kon (human Orexin 2 receptor): 10800 M⁻¹ s⁻¹
tR (human Orexin 2 receptor): 5.9 min

Cc1ccc(-n2nccn2)c(C(=O)N(C)[C@@H](C)CNc2ncc(C(F)(F)F)cn2)n1 [Example 2, N,6-dimethyl-3-(2H-1,2,3-triazol-2-yl)-N-[(2S)-1-{[5-(trifluoromethyl)pyrimidin-2-yl]amino}propan-2-yl]pyridine-2-carboxamide]
Ki (human OX1 receptor [1]): 1.58 nM
IC50 (human OX1 receptor [2]): 1.26 nM
dissociation half-life (human Orexin 1 receptor; [5]): 60 min
koff (human Orexin 1 receptor; [5]): 0.000183 s⁻¹
kon (human Orexin 1 receptor; [5]): 78000 M⁻¹ s⁻¹
tR (human Orexin 1 receptor; [5]): 87 min
Ki (human Orexin 1 receptor; [5]): 2.51 nM
dissociation half-life (human Orexin 1 receptor; [6]): 65 min
koff (human Orexin 1 receptor; [6]): 0.000183 s⁻¹
kon (human Orexin 1 receptor; [6]): 76200 M⁻¹ s⁻¹
tR (human Orexin 1 receptor; [6]): 93 min
Ki (human Orexin 1 receptor; [6]): 2.51 nM
dissociation half-life (human Orexin 1 receptor; [7]): 67 min
koff (human Orexin 1 receptor; [7]): 0.000167 s⁻¹
kon (human Orexin 1 receptor; [7]): 75300 M⁻¹ s⁻¹
tR (human Orexin 1 receptor; [7]): 96 min
Ki (human Orexin 1 receptor; [7]): 2.51 nM
Ki (human OX2 receptor [3]): 794 nM
IC50 (human OX2 receptor [4]): 2000 nM
Ki (human Orexin 2 receptor): 1580 nM
dissociation half-life (human Orexin 2 receptor): 4.3 min
koff (human Orexin 2 receptor): 0.00298 s⁻¹
kon (human Orexin 2 receptor): 1830 M⁻¹ s⁻¹
tR (human Orexin 2 receptor): 6.2 min

OxA: neuropeptide Orexin-A, a 33 amino acid polypeptide, agonist on OX1 and OX2 receptors (QPLPDCCRQKTCSCRLYELLHGAGNHAAGILTL; not fully specified (residue 1, C-terminus, bridges); cysteine pairing not given here; UniProt O43612 34-66, looked up)
higher affinity than OxB (orexin-1 (OX1)): > 10 fold
